Data on 1 molecule can be found in publication PMC9327782, “Benzoxazole derivatives as new VEGFR-2 inhibitors and apoptosis inducers: design, synthesis, in silico studies, and antiproliferative evaluation” (Journal of Enzyme Inhibition and Medicinal Chemistry, 2022).

Molecules are shown by their SMILES. Like-named read-outs stand apart in the source and are kept apart here.

The subject of one assay is HepG2 cell line. Nature of the assay: In vitro anti-proliferative MTT assay, HepG2. The format is cell-based, human. Conditions: Homo sapiens. The source says:
The cytotoxicity results were obtained as median growth inhibitory concentration (IC50).
MTT assay protocol. This method was applied in accordance with the comprehensive description in Supplementary data. […]
5 Raw data of cytotoxity and VEGFR -2 assay […]
Experimental of biological testing
1. In vitro anti-proliferative activity
MTT assay protocol was applied to assess the anti-proliferative activity of the synthesized compounds. Two human cancer cell lines (MCF-7 and HepG-2) and one normal cell line (WI-38) were used in this test. At first, the cell lines were cultured in RPMI -1640 medium with 10% fetal bovine serum. Antibiotics (100 units/ml penicillin and100 µg/ml streptomycin ) were added at 37 °C in a 5% CO2 incubator. The cell lines were seeded in a 96-well plate at a density of 1.0 x 10^4 cells / well at 37 °C for 24 h under 5% CO2. After incubation, the cells were treated with different […]
concentration of the synthesized compounds and incubated for 24 h. After 24 h of drug treatment, 20 µl of MTT solution at 5mg/ml was added and incubated for 4 h. Dimethyl sulfoxide (DMSO) in volume of 100 µl was added into each well to dissolve the purple formazan formed. The colorimetric assay was measured and recorded at absorbance of 570 nm using a plate reader (EXL 800, USA). The relative cell viability in percentage was calculated as (A570 of treated samples/A570 of untreated sample) X 100. […]
Background: Formazan colour is commonly taken as a measure of viable cells.

For another assay, the system named is Bcl-2. Nature of the assay: Western blot, Bcl-2 level in HepG2 cells. The assay is classed as cell-based, human. Conditions: HepG2, 24 h. How it is done: (§1) Compound 12lwas subjected to further cellular mechanistic study. The cellular levels of BAX and Bcl-2 were measured using the western blot technique after compound 12l was applied to HepG2 cells for 24 h.
(§2) The western blot technique was applied in accordance with the comprehensive description in Supplementary data[38–40] […]
(§3) The proteins expression of cleaved caspase‐3, BAX, and Bcl‐2 were determined using Western blot analysis. In brief, HepG2 cells were treated with control, or with the synthesized compounds.
Then cells were lysed in 250 μL precold lysis buffer (pH 7.4: Tris‐Base [10 mM], NaCl [100 mM], ethylenediaminetetraacetic acid [EDTA, 25 mM], ethylene glycol bis (2‐aminoethyl) tetraacetic acid [EGTA, 25 mM], 1% [v/v] NP‐40, and 1% [v/v] Triton X‐100) supplemented with 1:350 protease:phosphatase inhibitors cocktail (Sigma). The cells were immediately frozen at −20°C for 1.5 hours for further lysis, collected by cell scraper, sonicated 3 × 10 seconds, and centrifuged (13000 rpm, 15 minutes). Total protein concentrations in the supernatant were determined colorimetrically using the Pierce 660 nm Protein Assay method (Thermo Fisher Scientific, Rockford, IL), with BSA as the standard. […]

In another assay the test system is BAX. The assay can be described thus: Western blot, BAX level in HepG2 cells. The assay is classed as cell-based, human. The settings on record: HepG2, 24 h. As for the experimental part:
as §1, §2, §3
Then cells were lysed in 250 μL precold lysis buffer (pH 7.4: Tris‐Base [10 mM], NaCl [100 mM], ethylenediaminetetraacetic acid [EDTA, 25 mM], ethylene glycol bis (2‐aminoethyl) tetraacetic acid [EGTA, 25 mM], 1% [v/v] NP‐40, and 1% [v/v] Triton X‐100) supplemented with 1:350 protease:phosphatase inhibitors cocktail (Sigma). The cells were immediately frozen at −20°C for 1.5 hours for further lysis, collected by cell scraper, sonicated 3 × 10 seconds, and centrifuged (13000 rpm, 15 minutes). Total protein concentrations in the supernatant were determined colorimetrically using the Pierce 660 nm Protein Assay method (Thermo Fisher Scientific, Rockford, IL), with BSA as the standard. Equal amounts of protein (25 μg) samples were mixed with SDS‐loading buffer (pH 6.8: Tris‐HCl [700 mM], dithiothreitol [DTT, 600 mM], sodium dodecyl sulfate [SDS, 12%], glycerol [60%], and bromophenol blue [0.012%]), denatured by boiling at 95°C for 10 minutes, allowed to cool on ice for 15 minutes, vortexed vigorously for 30 seconds and loaded into SDS‐polyacrylamide gel and separated by an electrophoresis unit (Cleaver Scientific Ltd, UK), transferred onto polyvinylidene fluoride membranes (Bio‐Rad) for 35 minutes using a Trans‐Blot SD semi‐dry transfer cell (Bio‐Rad) at 250 mA and 22 V. Membranes were blocked with 5% (w/v) blotting grade dry milk (Bio‐Rad) in Tris‐buffered saline/Tween‐20 (TBS‐ T) (pH 7.5: Tris‐base [20 mM], NaCl [150 mM], and 0.05% [v/v] Tween‐ 20) while shaking for 1.5 hour at RT, and then incubated with the corresponding primary antibody against cleaved caspase‐3 antibody ([…], #9661; Cell Signaling Technology), β‐actin (1:2000, #A5060; Sigma), BAX (Biovision, USA) and Bcl‐2( Bioimaging, system, syngene, UK) for 9‐10 hours at 4°C in a […]
three separate experiments. […]
the synthesized compounds towards VEGFR-2. The crystal structure of VEGFR-2 was […]
2.03 Å). Sorafenib was used as reference ligand. To prepare the target protein, water molecules […]
fields. […] The validation […]
process was performed by redocking the co-crystallized ligand. The designed compounds together […]
followed by energy minimization then prepared for docking. Docking process was carried through […]
binding mode with target molecule.
Background: A western blot detects proteins with antibodies after separation by electrophoresis.

Another assay has as its target T1, VEGFR-2 (Homo sapiens, UniProt P35968).
T1 construct: purchased
Nature of the assay: In vitro VEGFR-2 kinase assay (ELISA kit). The assay is classed as biochemical. As for the experimental part:
The assay was applied by ELISA kits in accordance with the comprehensive description in[18]^,[33] as described in Supplementary data. […]
2. In vitro VEGFR-2 kinase assay
All the synthesized compounds were tested for its inhibitory activity against VEGFR-2. Human VEGFR-2 ELISA kit (Enzyme-Linked Immunosorbent Assay) was utilized in this test. At first, specific antibody for VEGFR-2 was seeded on a 96-well plate and 100 μL of the standard solution or the tested compound was added, all were incubated at room temperature for 2.5 h. Then washed, 100 μL of the prepared biotin antibody was added, then incubated at room temperature for additional 1 h. and washed. Then, 100 μL of streptavidin solution was added and incubated for 45 min. at room temperature. Washed again, 100 μL of TMB Substrate reagent was added and incubated for 30 min. at room temperature. 50 μL of the stop solution was added, then read at 450 […]
nm immediately. […]
(In general: ELISA stands for enzyme-linked immunosorbent assay.)

For another assay, the system named is Caspase-3. The assay can be described thus: Western blot, caspase-3 level in HepG2 cells. The format is cell-based, human. Conditions: HepG2, 10.50 µM, 24 h. How it is done: Caspase-3 has a key role in apoptosis initiation and execution[26]^,[27]. The western blot technique was used to investigate the effect of compound 12 l, the most promising member, on the caspase-3 level. HepG2 cells were treated with 12l (10.50 µM) for 24 h.
The western blot technique was applied in accordance with the comprehensive description in Supplementary data[38–40]
4. Flow cytometry analysis for apoptosis
Flow cytometry cell apoptosis analysis was used to investigate the apoptotic effect of the synthesized compounds. […] The stained cells were measured using Epics XL-MCL™ Flow Cytometer and analyzed using Flowing software.
The proteins expression of cleaved caspase‐3, BAX, and Bcl‐2 were determined using Western blot analysis. […]
Then cells were lysed in 250 μL precold lysis buffer (pH 7.4: Tris‐Base [10 mM], NaCl [100 mM], ethylenediaminetetraacetic acid [EDTA, 25 mM], ethylene glycol bis (2‐aminoethyl) tetraacetic acid [EGTA, 25 mM], 1% [v/v] NP‐40, and 1% [v/v] Triton X‐100) supplemented with 1:350 protease:phosphatase inhibitors cocktail (Sigma). […] Total protein concentrations in the supernatant were determined colorimetrically using the Pierce 660 nm Protein Assay method (Thermo Fisher Scientific, Rockford, IL), with BSA as the standard. […]

T1 sequence (P35968 20-1356): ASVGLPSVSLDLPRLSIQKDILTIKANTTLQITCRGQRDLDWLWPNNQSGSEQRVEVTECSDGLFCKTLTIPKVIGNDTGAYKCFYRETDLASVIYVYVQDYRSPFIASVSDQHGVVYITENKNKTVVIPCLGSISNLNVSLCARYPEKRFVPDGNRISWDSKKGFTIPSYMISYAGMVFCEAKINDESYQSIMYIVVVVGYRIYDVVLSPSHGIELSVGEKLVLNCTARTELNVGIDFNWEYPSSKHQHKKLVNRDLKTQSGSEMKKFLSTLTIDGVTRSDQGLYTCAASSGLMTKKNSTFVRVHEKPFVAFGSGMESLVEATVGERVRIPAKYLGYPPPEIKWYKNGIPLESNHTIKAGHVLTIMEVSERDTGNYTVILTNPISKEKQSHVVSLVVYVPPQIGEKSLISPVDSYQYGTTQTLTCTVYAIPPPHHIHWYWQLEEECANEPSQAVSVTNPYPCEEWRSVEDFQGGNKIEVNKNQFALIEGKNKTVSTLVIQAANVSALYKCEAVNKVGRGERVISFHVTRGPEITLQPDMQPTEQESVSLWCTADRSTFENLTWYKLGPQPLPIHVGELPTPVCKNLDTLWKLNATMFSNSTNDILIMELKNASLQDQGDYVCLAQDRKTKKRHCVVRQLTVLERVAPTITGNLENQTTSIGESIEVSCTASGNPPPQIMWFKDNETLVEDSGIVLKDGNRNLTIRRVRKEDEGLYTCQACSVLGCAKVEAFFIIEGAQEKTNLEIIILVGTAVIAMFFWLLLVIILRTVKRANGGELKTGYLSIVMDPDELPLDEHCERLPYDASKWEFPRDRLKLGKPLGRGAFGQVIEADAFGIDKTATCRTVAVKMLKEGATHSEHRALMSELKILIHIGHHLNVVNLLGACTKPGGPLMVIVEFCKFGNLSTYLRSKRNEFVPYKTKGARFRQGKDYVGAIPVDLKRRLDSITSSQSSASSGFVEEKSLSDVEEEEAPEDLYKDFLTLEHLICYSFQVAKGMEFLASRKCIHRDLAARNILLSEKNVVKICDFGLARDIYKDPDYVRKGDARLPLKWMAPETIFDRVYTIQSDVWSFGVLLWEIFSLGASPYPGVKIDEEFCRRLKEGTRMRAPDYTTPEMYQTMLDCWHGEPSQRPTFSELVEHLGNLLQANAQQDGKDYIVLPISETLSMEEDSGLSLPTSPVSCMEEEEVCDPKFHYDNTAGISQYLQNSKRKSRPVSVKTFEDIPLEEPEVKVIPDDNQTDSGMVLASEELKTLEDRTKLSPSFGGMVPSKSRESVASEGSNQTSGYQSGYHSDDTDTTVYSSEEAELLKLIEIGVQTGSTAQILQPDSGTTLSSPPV

Take `Cc1ccc2oc(SCC(=O)Nc3ccc(C(=O)Nc4cccc(Cl)c4)cc3)nc2c1` [Compound 12l, N-(3-Chlorophenyl)-4–(2-((5-methylbenzo[d]oxazol-2-yl)thio)acetamido)benzamide]: the IC50 in the assay on HepG2 cell line (HepG2, 24 h, MTT, 24 h treatment, mean of three experiments, read-out: In vitro IC50 HepG2) was 10.5 ± 0.8 µM. Besides, the IC50 with HepG2 cell line (HepG2, supplement raw data, dose-response curve fit, read-out: LogIC50 best-fit value, HepG2 (converted)) is 10.5 µM. Also, in the assay on Bcl-2 (control = 1.00), the “Protein expression (normalized to β-actin) Bcl-2” value turned out to be 0.47 ± 0.05. In the assay on Bcl-2 (versus control), this molecule came in with a Bcl-2 level decrease of 2.12 fold. Also, in the assay with BAX (control = 1.00), the “Protein expression (normalized to β-actin) BAX” value came to 3.40 ± 0.15 and the “Protein expression (normalized to β-actin) BAX/Bcl-2 ratio” value worked out at 6.83 ± 0.96. In the assay on BAX (versus control), the BAX level increase is given as 3.40 fold and the BAX/Bcl-2 ratio increase turned out to be 6.83 fold. This molecule returned an IC50 on VEGFR-2 (ELISA kit) of 0.0974 µM. Further, at VEGFR-2 (supplement raw data, curve fit), the “HillSlope best-fit value, VEGFR-2” value is -0.4614 and the “LogIC50 best-fit value, VEGFR-2” value is on record as 1.988 Log (nM). Besides, the “Protein expression (normalized to β-actin) Caspase-3” value in the assay on Caspase-3 (control = 1.00) was determined as 2.98 ± 0.13. The same molecule yielded a Caspase-3 level increase in the assay with Caspase-3 (versus control) of 2.98 fold.
